{
  "source": "ChEMBL document CHEMBL1201862",
  "about": "“PubChem BioAssay data set” (2004)",
  "key": {"HEK293": {"system": "HEK293", "test": "cells", "assay_type": "functional, cell-based", "settings": "Homo sapiens"}, "[1]": {"target": "T1, Nuclear receptor subfamily 0 group B member 1 (Homo sapiens, UniProt P51843)", "T1 sequence (P51843 whole entry)": "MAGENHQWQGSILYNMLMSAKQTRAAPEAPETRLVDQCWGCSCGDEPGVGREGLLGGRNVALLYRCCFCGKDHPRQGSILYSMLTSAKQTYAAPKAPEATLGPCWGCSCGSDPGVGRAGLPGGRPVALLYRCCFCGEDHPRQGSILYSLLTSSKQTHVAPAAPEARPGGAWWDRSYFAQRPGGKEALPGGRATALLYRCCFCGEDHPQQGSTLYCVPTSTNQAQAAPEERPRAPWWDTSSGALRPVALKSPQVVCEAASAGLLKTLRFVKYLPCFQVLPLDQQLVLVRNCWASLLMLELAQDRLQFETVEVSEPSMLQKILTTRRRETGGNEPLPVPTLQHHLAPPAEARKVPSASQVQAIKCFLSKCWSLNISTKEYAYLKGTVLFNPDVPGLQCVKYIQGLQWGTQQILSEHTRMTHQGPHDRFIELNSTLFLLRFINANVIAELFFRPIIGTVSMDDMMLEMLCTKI", "test": "Luminescence-based cell-based high throughput dose response assay for inhibitors of the orphan nuclear receptor subfamily 0, group B, member 1 (DAX1; NR0B1). [Related pubchem assays (depositor defined):AID504766, AID504790]", "assay_type": "functional"}, "[2]": {"target": "Tyrosine-protein phosphatase non-receptor type 11 (Homo sapiens, UniProt Q06124)", "sequence (Q06124 whole entry)": "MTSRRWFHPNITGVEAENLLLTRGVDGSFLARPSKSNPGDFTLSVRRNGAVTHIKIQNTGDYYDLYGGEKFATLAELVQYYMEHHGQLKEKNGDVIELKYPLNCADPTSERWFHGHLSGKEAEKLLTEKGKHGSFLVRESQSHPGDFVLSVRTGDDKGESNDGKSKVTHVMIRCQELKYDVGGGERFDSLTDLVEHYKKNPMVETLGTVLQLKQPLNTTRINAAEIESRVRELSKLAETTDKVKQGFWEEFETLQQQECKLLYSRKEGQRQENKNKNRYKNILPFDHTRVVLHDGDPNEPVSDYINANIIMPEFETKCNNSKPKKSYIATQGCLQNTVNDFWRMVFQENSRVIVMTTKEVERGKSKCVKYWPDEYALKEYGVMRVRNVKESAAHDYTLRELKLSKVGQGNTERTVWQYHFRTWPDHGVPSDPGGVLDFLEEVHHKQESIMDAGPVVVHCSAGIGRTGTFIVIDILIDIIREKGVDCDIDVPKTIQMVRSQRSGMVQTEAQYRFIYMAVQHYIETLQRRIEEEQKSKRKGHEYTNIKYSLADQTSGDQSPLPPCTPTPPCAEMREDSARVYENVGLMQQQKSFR", "test": "PTPN11 enzyme inhibitors – biochemical, selectivity assay for STEP inhibitor project, dose response (AID 602367)", "assay_type": "functional", "settings": "read-out: IC50_Mean"}, "[3]": {"target": "Tyrosine-protein phosphatase non-receptor type 5 (Homo sapiens, UniProt P54829)", "sequence (P54829 whole entry)": "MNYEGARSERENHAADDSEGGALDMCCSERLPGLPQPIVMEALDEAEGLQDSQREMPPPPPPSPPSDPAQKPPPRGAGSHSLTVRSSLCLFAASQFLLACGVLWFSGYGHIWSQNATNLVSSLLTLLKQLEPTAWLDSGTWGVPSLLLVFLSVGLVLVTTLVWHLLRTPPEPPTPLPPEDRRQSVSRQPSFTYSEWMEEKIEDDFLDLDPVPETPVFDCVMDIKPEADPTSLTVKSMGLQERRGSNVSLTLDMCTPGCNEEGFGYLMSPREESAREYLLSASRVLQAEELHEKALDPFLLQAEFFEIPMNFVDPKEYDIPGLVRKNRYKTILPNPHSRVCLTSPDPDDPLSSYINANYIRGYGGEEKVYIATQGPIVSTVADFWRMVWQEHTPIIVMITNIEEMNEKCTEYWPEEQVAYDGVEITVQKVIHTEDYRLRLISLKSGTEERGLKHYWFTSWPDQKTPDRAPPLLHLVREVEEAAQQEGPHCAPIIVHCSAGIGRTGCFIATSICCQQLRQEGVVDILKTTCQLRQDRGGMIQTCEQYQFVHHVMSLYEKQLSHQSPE", "test": "PTPN5 enzyme inhibition – biochemical, fluorescence intensity, uHTS hits, confirmation (AID 602372)", "assay_type": "functional", "settings": "read-out: IC50_Mean"}, "[4]": {"target": "Dual specificity protein phosphatase 3 (Homo sapiens, UniProt P51452)", "sequence (P51452 whole entry)": "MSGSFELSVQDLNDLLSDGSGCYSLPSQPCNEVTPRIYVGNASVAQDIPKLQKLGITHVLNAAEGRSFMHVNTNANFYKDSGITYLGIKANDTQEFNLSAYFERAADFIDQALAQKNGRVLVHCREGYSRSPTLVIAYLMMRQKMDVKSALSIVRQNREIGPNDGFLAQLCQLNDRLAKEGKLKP", "test": "VHR phosphatase inhibition, dose response, selectivity assay for STEP inhibitor project, biochemical (AID 602374)", "assay_type": "functional", "settings": "read-out: IC50_Mean"}, "INS1": {"system": "INS1", "test": "INS-1E survival protection against cytokine death – cell-based, luminescence, retest, dose response (AID 449756);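 further: cell death triggered by IL-1 beta plus TNF-alpha plus IFN-gamma mixture; protective hits raise ATP signal compared with cytokine alone wells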", "assay_type": "functional", "settings": "Rattus norvegicus"}, "[5]": {"target": "T2, Sentrin-specific protease 8 (Homo sapiens, UniProt Q96LD8)", "T2 sequence (Q96LD8 whole entry)": "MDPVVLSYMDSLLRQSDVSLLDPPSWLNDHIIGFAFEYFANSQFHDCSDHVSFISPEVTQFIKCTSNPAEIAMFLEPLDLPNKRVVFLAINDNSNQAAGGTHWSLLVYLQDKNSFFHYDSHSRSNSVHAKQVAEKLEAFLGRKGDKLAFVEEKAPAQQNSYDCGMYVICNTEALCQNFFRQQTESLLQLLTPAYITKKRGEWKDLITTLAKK", "assay_type": "functional"}, "[6]": {"target": "Mitochondrial peptide methionine sulfoxide reductase (Bos taurus, UniProt P54149)", "sequence (P54149 whole entry)": "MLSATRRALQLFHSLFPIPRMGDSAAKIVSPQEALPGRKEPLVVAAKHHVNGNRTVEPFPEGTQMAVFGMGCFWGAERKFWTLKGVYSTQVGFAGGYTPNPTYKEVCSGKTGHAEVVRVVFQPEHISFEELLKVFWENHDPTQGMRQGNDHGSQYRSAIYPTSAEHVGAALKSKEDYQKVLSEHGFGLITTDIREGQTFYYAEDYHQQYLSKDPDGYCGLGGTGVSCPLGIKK", "assay_type": "functional"}, "[7]": {"target": "T2, Sentrin-specific protease 8", "assay_type": "functional", "remark": "listed apart in the source"}, "[8]": {"test": "NIH-3T3 fibroblast cytotoxicity, dose response, cytotoxicity control, cell-based, fluorescence, Alamar Blue, secondary assay (AID 2327);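 further: NIH-3T3 mouse fibroblasts cultured with fluconazole at 8 µg/mL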", "assay_type": "functional"}, "[9]": {"test": "fluconazole-exposed Candida albicans growth modulators – fluorescence, retest, confirmation (AID 2467)", "assay_type": "functional, cell-based"}, "[10]": {"target": "T3, Serine/threonine-protein phosphatase (Candida dubliniensis (strain CD36 / CBS 7987 / NCPF 3949 / NRRLY-17841) (Yeast), UniProt B9W6M3)", "T3 sequence (B9W6M3 whole entry)": "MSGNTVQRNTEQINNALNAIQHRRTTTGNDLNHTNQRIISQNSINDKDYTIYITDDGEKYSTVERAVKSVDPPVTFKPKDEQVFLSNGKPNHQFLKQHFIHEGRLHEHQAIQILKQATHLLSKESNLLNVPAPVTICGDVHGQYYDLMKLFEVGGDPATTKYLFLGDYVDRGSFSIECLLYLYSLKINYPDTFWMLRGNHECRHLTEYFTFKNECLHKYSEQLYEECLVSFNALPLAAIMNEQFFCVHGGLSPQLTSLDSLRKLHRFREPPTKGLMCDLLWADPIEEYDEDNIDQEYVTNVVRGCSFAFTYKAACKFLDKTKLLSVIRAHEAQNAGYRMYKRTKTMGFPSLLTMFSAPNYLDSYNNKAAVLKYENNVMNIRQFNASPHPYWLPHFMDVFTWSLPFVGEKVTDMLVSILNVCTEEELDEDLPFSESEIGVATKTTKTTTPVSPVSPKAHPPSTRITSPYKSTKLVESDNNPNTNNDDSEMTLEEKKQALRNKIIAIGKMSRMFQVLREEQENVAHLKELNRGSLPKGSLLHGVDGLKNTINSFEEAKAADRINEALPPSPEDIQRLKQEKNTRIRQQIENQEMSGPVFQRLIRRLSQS", "test": "blockers of CaCl2-induced CDRE-lacZ signaling – S. cerevisiae, luminescence, secondary, dose response (AID 2388);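 further: yeast reporter cells carrying a calcineurin-responsive lacZ construct stimulated with calcium chloride; luminescent beta-galactosidase reporter signal in whole cells rather than isolated phosphatase activity; potency for inhibition where a drop in reporter signal means calcineurin blockade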", "assay_type": "functional, cell-based"}, "[11]": {"target": "ATP-dependent molecular chaperone HSP82 (Candida albicans (strain WO-1) (Yeast), UniProt C4YTQ8)", "sequence (C4YTQ8 whole entry)": "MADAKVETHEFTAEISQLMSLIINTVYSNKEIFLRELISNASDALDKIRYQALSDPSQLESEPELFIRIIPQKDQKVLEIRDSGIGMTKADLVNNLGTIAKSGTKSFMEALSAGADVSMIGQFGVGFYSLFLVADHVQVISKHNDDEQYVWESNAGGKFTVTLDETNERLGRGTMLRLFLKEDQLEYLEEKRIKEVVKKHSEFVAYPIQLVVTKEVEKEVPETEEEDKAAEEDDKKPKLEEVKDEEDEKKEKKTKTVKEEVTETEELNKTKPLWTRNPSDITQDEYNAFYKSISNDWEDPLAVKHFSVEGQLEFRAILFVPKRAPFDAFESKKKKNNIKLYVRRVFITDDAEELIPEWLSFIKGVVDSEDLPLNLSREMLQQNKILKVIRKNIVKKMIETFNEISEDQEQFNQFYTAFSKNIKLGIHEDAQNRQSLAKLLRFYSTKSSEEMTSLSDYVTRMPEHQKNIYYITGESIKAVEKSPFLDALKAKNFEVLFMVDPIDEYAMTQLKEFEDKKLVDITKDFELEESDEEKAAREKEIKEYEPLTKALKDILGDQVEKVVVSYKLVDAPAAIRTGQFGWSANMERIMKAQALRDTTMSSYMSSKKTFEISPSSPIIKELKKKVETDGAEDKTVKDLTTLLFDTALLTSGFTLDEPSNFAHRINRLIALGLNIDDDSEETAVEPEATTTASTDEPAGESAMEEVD", "test": "steroid-induced GRE reporter decrease in yeast – S. cerevisiae, luminescence, Hsp90 inhibitor project, dose response (AID 2400);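 further: beta-galactosidase luminescence from glucocorticoid response element reporter as proxy for Hsp90 function; inhibitor potency where signal loss means Hsp90 inhibition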", "assay_type": "functional, cell-based"}, "[12]": {"target": "T4, Low molecular weight phosphotyrosine protein phosphatase (Homo sapiens, UniProt P24666)", "T4 sequence (P24666 whole entry)": "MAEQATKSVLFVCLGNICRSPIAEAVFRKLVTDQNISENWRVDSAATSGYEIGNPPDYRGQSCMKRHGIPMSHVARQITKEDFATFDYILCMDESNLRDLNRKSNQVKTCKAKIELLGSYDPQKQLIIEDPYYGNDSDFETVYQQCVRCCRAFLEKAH", "assay_type": "functional", "settings": "read-out: IC50_Mean"}, "[13]": {"target": "T4, Low molecular weight phosphotyrosine protein phosphatase", "assay_type": "functional", "settings": "read-out: IC50_Mean", "remark": "listed apart in the source"}, "[14]": {"target": "T5, Tyrosine-protein phosphatase non-receptor type 22 (Homo sapiens, UniProt Q9Y2R2)", "T5 sequence (Q9Y2R2 whole entry)": "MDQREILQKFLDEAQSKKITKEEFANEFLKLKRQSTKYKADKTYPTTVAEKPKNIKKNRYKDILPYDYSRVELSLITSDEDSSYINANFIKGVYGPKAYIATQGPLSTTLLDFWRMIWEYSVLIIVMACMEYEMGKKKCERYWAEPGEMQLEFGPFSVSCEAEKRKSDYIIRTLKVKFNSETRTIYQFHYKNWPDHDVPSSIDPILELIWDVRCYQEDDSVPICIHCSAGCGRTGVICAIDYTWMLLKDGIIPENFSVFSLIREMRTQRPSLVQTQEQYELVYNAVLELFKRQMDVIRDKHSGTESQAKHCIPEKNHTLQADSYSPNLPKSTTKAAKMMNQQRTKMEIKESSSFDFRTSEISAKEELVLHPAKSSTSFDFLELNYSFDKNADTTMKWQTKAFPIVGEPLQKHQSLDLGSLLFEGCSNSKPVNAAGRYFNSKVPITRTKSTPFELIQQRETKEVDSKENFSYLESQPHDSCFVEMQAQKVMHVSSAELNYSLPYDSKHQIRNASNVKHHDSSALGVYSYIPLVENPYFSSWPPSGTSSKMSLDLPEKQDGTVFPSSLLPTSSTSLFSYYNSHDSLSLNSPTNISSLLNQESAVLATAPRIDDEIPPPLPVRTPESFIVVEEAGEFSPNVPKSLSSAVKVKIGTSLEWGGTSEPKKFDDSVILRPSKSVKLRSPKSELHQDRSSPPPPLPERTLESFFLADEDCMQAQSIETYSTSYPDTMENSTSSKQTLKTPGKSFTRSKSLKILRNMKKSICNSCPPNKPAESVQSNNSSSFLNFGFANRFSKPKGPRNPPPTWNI", "test": "PTPN22 enzyme inhibitors – biochemical, fluorescence, LYP catalytic domain, selectivity assay for LMPTP inhibitor project, dose response (AID 652006)", "assay_type": "functional", "settings": "read-out: IC50_Mean"}, "Leucine aminopeptidase": {"target": "T6, Leucine aminopeptidase (Plasmodium falciparum 3D7, UniProt Q8IL11)", "T6 sequence (Q8IL11 whole entry)": "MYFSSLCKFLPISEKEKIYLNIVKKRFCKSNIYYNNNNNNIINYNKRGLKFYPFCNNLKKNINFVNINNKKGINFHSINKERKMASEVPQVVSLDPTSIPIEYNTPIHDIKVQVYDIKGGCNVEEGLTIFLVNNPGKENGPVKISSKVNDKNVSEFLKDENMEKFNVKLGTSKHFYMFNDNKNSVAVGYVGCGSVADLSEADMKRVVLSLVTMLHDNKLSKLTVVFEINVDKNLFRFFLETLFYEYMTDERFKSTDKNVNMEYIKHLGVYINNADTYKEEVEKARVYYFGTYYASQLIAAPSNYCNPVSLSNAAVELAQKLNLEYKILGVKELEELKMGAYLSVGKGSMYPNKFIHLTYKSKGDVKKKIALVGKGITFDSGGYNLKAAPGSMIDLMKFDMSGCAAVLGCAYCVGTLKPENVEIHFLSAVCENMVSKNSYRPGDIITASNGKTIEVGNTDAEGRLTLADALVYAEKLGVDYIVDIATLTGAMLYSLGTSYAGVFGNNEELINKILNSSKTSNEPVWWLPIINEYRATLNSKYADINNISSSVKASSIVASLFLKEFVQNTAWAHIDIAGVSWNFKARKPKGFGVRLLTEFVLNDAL", "test": "P. falciparum M17LAP inhibitors, primary screen, biochemical, fluorogenic H-Leu-NHMec substrate, 1536-well (AID 1619)", "assay_type": "functional"}},
  "note": "Calls of active or inactive are those of the source.",
  "data": [
    {"smiles": "COC(=O)c1sc(=S)n(Cc2ccccc2)c1C", "values": [
      {"measurement": "IC50", "setting": "HEK293", "value": "> 67.5 µM (inactive)"},
      {"measurement": "IC50", "setting": "[1]", "value": "> 67.5 µM (inactive)"}
    ]},
    {"smiles": "COCCN(C(=S)Nc1c(C)cc(C)cc1C)C(C)c1cccnc1", "note": "(stereo unspecified)", "values": [
      {"measurement": "IC50", "setting": "[2]", "value": "1.71 µM (active)"},
      {"measurement": "IC50", "setting": "[3]", "value": "> 80 µM (inactive)"},
      {"measurement": "IC50", "setting": "[4]", "value": "0.696 µM (active)"}
    ]},
    {"smiles": "COC(=O)C1(Cc2ccc(O)cc2)OC(=O)C(O)=C1c1ccc(O)cc1", "note": "(stereo unspecified)", "values": [
      {"measurement": "IC50", "setting": "HEK293", "value": "56.1 µM (inactive)"},
      {"measurement": "IC50", "setting": "[1]", "value": "> 67.5 µM (inactive)"}
    ]},
    {"smiles": "CC(=O)NN1C(=O)c2ccc3c4c(ccc(c24)C1=O)C(=O)N(NC(C)=O)C3=O", "values": [
      {"measurement": "AC50", "setting": "INS1", "value": "0.652 µM (active)"},
      {"measurement": "IC50", "setting": "[5]", "value": "0.0707 µM (active)"},
      {"measurement": "IC50", "setting": "[6]", "value": "76.8 µM (inactive)"},
      {"measurement": "IC50", "setting": "[7]", "value": "0.445 µM (active)"}
    ]},
    {"smiles": "CCc1cc(-c2nnc(S)n2-c2ccccc2C)cs1", "values": [
      {"measurement": "EC50", "setting": "[8]", "value": "> 150 µM (inactive)"},
      {"measurement": "EC50", "setting": "[9]", "value": "0.363 µM (active)"},
      {"measurement": "EC50", "setting": "[10]", "value": "> 180 µM (inactive)"},
      {"measurement": "EC50", "setting": "[11]", "value": "> 160 µM (inactive)"}
    ]},
    {"smiles": "COCCNC(=O)C(c1ccc(Cl)cc1)N(Cc1ccco1)C(=O)CCC(=O)Nc1ccccn1", "note": "(stereo unspecified)", "values": [
      {"measurement": "IC50", "setting": "HEK293", "value": "> 67.5 µM (inactive)"},
      {"measurement": "IC50", "setting": "[1]", "value": "> 67.5 µM (inactive)"}
    ]},
    {"smiles": "COc1ccc(Nc2nc(NCc3cccs3)nc3ccsc23)cc1OC", "values": [
      {"measurement": "IC50", "setting": "[12]", "value": "11.6 µM (active)"},
      {"measurement": "IC50", "setting": "[13]", "value": "16.4 µM (active)"},
      {"measurement": "IC50", "setting": "[14]", "value": "22.7 µM (inactive)"}
    ]},
    {"smiles": "Cc1[nH]c(C(=O)N/N=C/c2ccc(C(=O)O)cc2)c(C)c1C(=O)N/N=C/c1ccc(C(=O)O)cc1", "values": [
      {"measurement": "IC50", "setting": "Leucine aminopeptidase", "value": "45.7 µM (active)"},
      {"measurement": "IC50", "setting": "[6]", "value": "114 µM (inactive)"}
    ]},
    {"smiles": "Nc1ccc(C(=O)N/N=C\\c2ccc(OC(=O)c3ccccc3Cl)cc2)cc1", "values": [
      {"measurement": "EC50", "setting": "[8]", "value": "> 160 µM (inconclusive)"},
      {"measurement": "EC50", "setting": "[9]", "value": "0.797 µM (active)"},
      {"measurement": "EC50", "setting": "[10]", "value": "> 180 µM (inactive)"},
      {"measurement": "EC50", "setting": "[11]", "value": "> 160 µM (inactive)"}
    ]}
  ]
}
